Test results from US20190185507A1 (priority 2016, published 2019).

Legend:
[1] = test system: HCV (Jc-1 Wild-type virus); assay: Efficacy testing of Sofosbuvir and n-Propyl-Sofosbuvir in HCV-infected Huh7.5 cells, quantitative PCR of HCV RNA in supernatant; type: cell-based, Hepatitis C virus; details: for virus reduction / Ct-value (threshold cycle) of HCV-RNA: single application 48 h post infection; for virus reduction: two days treatment, inferred from Ct 28 vs 25; for Ct-value (threshold cycle) of HCV-RNA: μM range down to lowest dose, RNA extracted two days later, SYBR Green kit, untreated control Ct around 25 (FIG. 1); for antiviral profile (reduction of viral titer): single application, 72 h, concentrations down to 9 nM, Altona HCV quantification kit (FIG. 4); for amount of viral RNA (viral load) / reduction of viral RNA: two-time application, highest concentrations; for amount of viral RNA (viral load): CE-labeled PCR HCV quantification kit, controls around 10^7 IU/ml (FIG. 7); for reduction of viral RNA: versus controls
Experimental: HCV histochemistry and determination of virus titers. To determine virus titers, the protocol described by Linden bach et al. (2005) is slightly modified. 1×10^4 Huh-7.5 cells or 0.7×10^4 Lunet cells were seeded per 96-well 24 h prior to infection. Six wells are infected simultaneously with the same dilution of filtered cell culture supernatants of HCV transfected or infected cells. Usually, the first dilution is a 1:10 dilution followed by 1:6 dilutions. 72 h after infection, the cells are washed once with PBS and then fixed in ice-cold methanol for 20 min at −20° C. Afterwards, the cells are washed with PBS and then permeabilized with 0.5% Triton X-100 in PBS for 5 min at RT. The first antibody detecting the HCV NSSA protein (9E10) is diluted 1:2000 in PBS and was incubated on the cells for 1 h. Then the cells are washed again three times with PBS and stained with the secondary antibody (goat a-mouse coupled to HRP, Sigma) 1:200 in PBS for 45 min at RT. To detect the HCV positive cells, the wells are first washed again three times with PBS and then the HRP activity is detected by the addition of 30 μl Carbazole substrate/96-well for 15 min at RT. Afterwards, the substrate is replaced with water and the wells were analyzed by light microscopy for positive cells. The 50% tissue culture infectious dose (TCID50) is calculated based on the methods described by Spearman and Karber. By this, the concentrations of a virus isolation needed to infect 50% of a given number of wells is determined (Spearman, 1908). qPCR of viral supernatant. Total RNA was extracted by the Altostar system according to the protocol of the manufacturer. A Power SYBR Green RNA-to-Ct 1-step kit (Applied Biosystems) is used to quantify the amount of HCV RNA. Primers specific for the 5′ UTR are 5′-TGCGGAACCGGTGAGTACA-3′ (forward) and […]. The PCR program conditions are as follows: 30 min at 48° C. for reverse transcription, 10 min at 95° C. for enzyme activation, and 40 cycles of amplification with 15 s at 95° C. for denaturation and 1 min at 60° C. for annealing and extension. Standard curve reactions are run in parallel by using serially diluted Jc1/Gluc2A plasmid ranging from 2.0×10^7 to 2.0×10^0 copies. To confirm obtained for experiment 3 (FIGS. 4 and 7), PCR was performed using the Atlona HCV-quantification kit.
Efficacy Testing of Sofosbuvir and n-Propyl-Sofosbuvir (compound I″a). Huh7.5 cells (1×10^4 per well) were seeded in a 96-well plate. The following day cells were infected with 8500 TCID50/well of HCV (Jc-1 Wild-type virus) for infection. After 48 h cells were treated with Sofosbuvir, n-Propyl-Sofosbuvir and as a negative control with the solvent used for Sofosbuvir, n-Propyl-Sofosbuvir (DMSO/EtOH) at concentrations given in the Figures. Two days or three later, supernatants were harvested and RNA was extracted by the Altostar system according to the protocol of the manufacturer. Quantitative PCR was performed using the Atlona HCV-quantification kit as recommended by the manufacturer.
In one set of experiments, Sofosbuvir and n-Propyl-Sofosbuvir were applied 48 h post infection and again 24 h later as indicated by FIG. 5.
All experiments shown represent the mean of at least two independent sets of data performed in duplicates.

[2] = Bi-directional Caco-2 cell permeability assay; details: human, Caco-2, pH 7.4
Experimental: (§1) The bi-directional Caco-2 cell permeability assay was performed as described as follows: Caco-2 cells (ECACC) were seeded onto 24-well Transwell plates at 2×10^5 cells per well and used in confluent monolayers after a 21 day culture at 37° C. under 5% CO2. Test and control compounds (propranolol, vinblastine), prepared in DMSO, were added (10 μM, 0.1% DMSO final, n=2) to donor compartments of the Transwell plate assembly in assay buffer (Hanks balanced salt solution supplemented with 25 mM HEPES, adjusted to pH 7.4) for both apical to basolateral (A>B) and basolateral to apical (B>A) measurements. Incubations were performed at 37° C., with samples removed from both donor and acceptor chambers at T=0 and 1 hour and compound analysed by mass spectrometry (LC-MS/MS) including an analytical internal standard.
(§2) Apparent permeability (Papp) values were determined from the relationship: Papp=[CompoundAcceptor T=end]×VAcceptor/([CompoundDonor T=0]×VDonor)/incubation time×VDonor/Area×60×10-6 cm/s
(§3) Where V is the volume of each Transwell compartment (apical 125 μL, basolateral 600 μL), and concentrations are the relative MS responses for compound (normalized to internal standard) in the donor chamber before incubation and acceptor chamber at the end of the incubation.
(§4) Area=area of cells exposed for drug transfer (0.33 cm2).
(§5) Efflux ratios (Papp B>A/Papp A>B) were calculated for each compound from the mean Papp values in each direction.
(§6) Lucifer Yellow (LY) was added to the apical buffer in all wells to assess viability of the cell layer.
(§7) Compound recovery from the wells was determined from MS responses (normalized to internal standard) in donor and acceptor chambers at the end of incubation compared to response in the donor chamber pre-incubation.

Caco-2 cells = assay: Bi-directional Caco-2 cell permeability assay; details: for permeability classification in the A>B direction: Caco-2; for efflux transporter substrate finding: efflux ratio larger than 2
Experimental: as §1, §2, §3, §4, §5, §6, §7

[3] = test system: HCV-Jc-1 tagged to a yellow fluorescent protein; details: after 48 h of infection; Liu et al., Antimicrob. Agents Chemother. 2015; cited from earlier work

Row | SMILES | virus reduction [1] | Ct-value (threshold cycle) of HCV-RNA [1] | antiviral profile (reduction of viral titer) [1] | amount of viral RNA (viral load) [1] | reduction of viral RNA [1] | Papp A→B at 1 h, 10 μM [2] | efflux ratio at 1 h, 10 μM [2] | permeability classification in the A>B direction (Caco-2 cells) | efflux transporter substrate finding (Caco-2 cells) | IC50 [3]
1 | CCCOC(=O)[C@H](C)N[P@](=O)(OC[C@H]1O[C@@H](n2ccc(=O)[nH]c2=O)[C@](C)(F)[C@@H]1O)Oc1ccccc1 [n-Propyl-Sofosbuvir, (S)-n-propyl 2-(((S)-(((2R,3R,4R,5R)-5-(2,4-dioxo-3,4-dihydropyrimidin-1(2H)-yl)-4-fluoro-3-hydroxy-4-methyltetrahydrofuran-2-yl)methoxy)(phenoxy)phosphoryl)-amino)propanoate] | about 1 log | around 28 | comparable antiviral profile | 6.5×10^5 IU/ml | about 95% | 2 ×10⁻⁶ cm/s | 4.4 | low permeable | substrates of efflux transporters | –
2 | CC(C)OC(=O)[C@H](C)N[P@](=O)(OC[C@H]1O[C@@H](n2ccc(=O)[nH]c2=O)[C@](C)(F)[C@@H]1O)Oc1ccccc1 [Sofosbuvir, (S)-isopropyl 2-(((S)-(((2R,3R,4R,5R)-5-(2,4-dioxo-3,4-dihydropyrimidin-1(2H)-yl)-4-fluoro-3-hydroxy-4-methyltetrahydrofuran-2-yl)methoxy)(phenoxy)phosphoryl)-amino)propanoate] | about 1 log | around 28 | comparable antiviral profile | 6.5×10^5 IU/ml | about 95% | 4 ×10⁻⁶ cm/s | 4.6 | low permeable | substrates of efflux transporters | > 10 µM
3 | CC[C@]1(O)C[C@@H]2CN(CCc3c([nH]c4ccccc34)[C@@](C(=O)OC)(c3cc4c(cc3OC)N(C)[C@H]3[C@@](O)(C(=O)OC)[C@H](OC(C)=O)[C@]5(CC)C=CCN6CC[C@]43[C@@H]65)C2)C1 [vinblastine] | – | – | – | – | – | 5 ×10⁻⁶ cm/s | – | – | – | –
